Test results: patent US20090325960A1, “METHOD FOR TREATING INFLAMMATORY DISEASES USING RHO KINASE INHIBITOR COMPOUNDS” (priority 2008, published 2009)
Like-named read-outs stand apart in the source and are kept apart here.

Experiments:
[1] = system: cytokine secretion from LPS-stimulated human monocytes; assay: Human monocyte cytokine secretion assay (LPS-stimulated); assay type: cell-based
Method: Peripheral blood from healthy human volunteers was collected and the monocytes isolated via Ficoll-paque density centrifugation. […] The cells were allowed to pre-incubate with test compound at the indicated concentration for 30 minutes (37° C., 5% CO2, humidified air); after which the supernatant was removed and media containing compound and 1 ng/mL LPS was added. Cells were allowed to incubate with compounds and LPS for 4 hours at 37° C. after which the supernatant was removed and stored at −80° C. Cytokine concentrations in the supernatant were determined using commercially available Bio-Rad Bio-Plex™ kits according the manufacturer's instructions.

[2] = target: T1, Mnk2 (Homo sapiens, UniProt Q9HBH9); assay type: biochemical
T1 construct: purchased Upstate, Millipore Bioscience Division (KinaseProfiler service)
T1 sequence (Q9HBH9 whole entry): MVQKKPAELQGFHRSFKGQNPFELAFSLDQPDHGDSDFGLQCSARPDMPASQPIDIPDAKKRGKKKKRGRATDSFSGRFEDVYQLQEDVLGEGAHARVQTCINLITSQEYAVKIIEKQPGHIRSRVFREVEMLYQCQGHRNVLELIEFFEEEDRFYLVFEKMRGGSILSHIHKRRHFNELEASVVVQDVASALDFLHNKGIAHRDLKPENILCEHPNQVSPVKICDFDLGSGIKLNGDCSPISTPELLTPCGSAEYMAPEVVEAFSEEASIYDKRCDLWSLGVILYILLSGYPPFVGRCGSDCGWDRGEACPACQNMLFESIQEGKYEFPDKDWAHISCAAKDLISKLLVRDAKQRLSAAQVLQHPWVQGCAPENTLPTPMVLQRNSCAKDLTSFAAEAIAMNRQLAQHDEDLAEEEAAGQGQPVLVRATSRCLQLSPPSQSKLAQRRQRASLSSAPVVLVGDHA
Method: (§1) Compounds of Formulae I and II were examined for activity against a selected panel of kinases using the KinaseProfiler™ enzyme profiling services (Upstate, Millipore Bioscience Division). Percent kinase activity at 10 μM and 1 μM test compound and 10 μM ATP was determined against 40 wild-type recombinant human kinases according to Upstate's standard protocol: ASK1, BTK, CSK, c-RAF, GCK, GSK3β, IKKα, IKKβ, IRAK1, IRAK4, JNK1α1, JNK2α2, JNK3, ERK1, ERK2, MAPKAP-K2, MAPKAP-K3, MEK1, MKK4, MKK6, MKK7β, Mnk2, MSK1, PAK3, PDK1, PRAK, ROCK1, Rsk2, SAPK2a, SAPK2b, SAPK3, SAPK4, SRPK1, SRPK2, Syk, TAK1, TBK1, PI3-Kβ, PI3-Kγ, PI3-Kδ.

[3] = Rat oral pharmacokinetics (plasma); assay type: in vivo; conditions: rat oral PK, mean of n = 3 rats; for AUC (0-last): time zero through last observable value
Method: Plasma (EDTA K2 anticoagulant) was collected from male, cannulated, CD Sprague Dawley rats to determine the pharmacokinetics of formulations containing compound inhibitors of Rho kinase. Each animal was dosed orally with a 4 ml/kg solution or suspension of each test compound in 10 mM acetate buffered saline, pH 4.5 at a final concentration range of 20-30 mol/kg. Blood was collected at 0.25, 0.5, 1, 2, 4, 6, 8, and 24 hours. Plasma samples were assayed for the concentration of the test compound using an on-line, solid phase extraction LC/MS/MS analysis system.
Pharmacokinetic analyses were performed using WinNonlin software version 5.2 (Pharsight Corporation, Mountain View, Calif.).
As determined from the plasma concentration versus time curves, the time to peak and peak exposure are represented by the values Tmax and Cmax, respectively. The AUC values (nM*hr) shown were calculated as the areas under the plasma concentration versus time curves from time zero through the time of the last observable value and represent the total exposure of the compound over the course of the study. Half-life values or the amount of time required for the plasma levels of the compound to decline to half the initial value are represented as t1/2.

[4] = system: monocytes, endothelial cells, and lymphocytes; conditions: cited from earlier work
[5] = target: T2, ERK1 (Homo sapiens, UniProt P27361); assay: Kinase panel screen (KinaseProfiler), ERK1; assay type: biochemical; conditions: 1 μM test compound, 10 μM ATP
T2 construct: purchased Upstate, Millipore Bioscience Division (KinaseProfiler service)
T2 sequence (P27361 whole entry): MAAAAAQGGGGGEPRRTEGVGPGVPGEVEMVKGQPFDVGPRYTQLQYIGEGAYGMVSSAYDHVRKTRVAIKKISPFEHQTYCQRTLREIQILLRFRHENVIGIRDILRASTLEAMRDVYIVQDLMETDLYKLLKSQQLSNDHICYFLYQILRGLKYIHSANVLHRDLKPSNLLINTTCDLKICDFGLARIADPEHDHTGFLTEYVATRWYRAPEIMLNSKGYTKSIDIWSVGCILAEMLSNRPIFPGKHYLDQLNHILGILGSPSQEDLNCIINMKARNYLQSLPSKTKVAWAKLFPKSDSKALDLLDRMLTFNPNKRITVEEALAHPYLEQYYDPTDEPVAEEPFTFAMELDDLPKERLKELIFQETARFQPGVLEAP
Method: as §1

[6] = system: ova-sensitized, ova-challenged BALB/c mice; assay: Prevention of airway hyperreactivity (Penh, methacholine) in mouse ovalbumin sensitization model; assay type: in vivo; conditions: days 27 to 31; for airway hyperreactivity: intratracheal once a day
Method: The anti-inflammatory dosing paradigm consists of dosing the animals once a day starting on day 27 and finishing on either day 30 or 31 (1 hr prior to the aerosolized ovalbumin challenges on days 28 to 30) but not on day 32 when hyperreactivity evaluation occurs. […] Exposure to the methacholine doses consisted of a 3 minute period during which a nebulizer was aerosolizing the methacholine and an additional 3 minute period following the cessation of nebulization. […] Enhanced pause (Penh), a unitless index of airway hyperreactivity, is derived from the expiratory side of the respiratory waveform measured via the plethysmograph and is used as an indirect measure of airway resistance and hyperreactivity. […] Following the methacholine dose response, BALF was collected and all animals were anesthetized, bled and euthanized. […] The Penh value at each of the dose levels of methacholine represents the 6-minute average response. Change from baseline (CFB) in Penh was calculated at each methacholine dose and the area under the curve (AUC) for these CFB values was calculated using the trapezoidal rule. This same approach was applied for each mouse across multiple experiments. […] Data from equal experimental conditions across experiments performed on different days were pooled for statistical analysis and data reporting. […] A random intercept for each experiment was assumed to account for possible similarities of the results obtained from a given experiment (i.e., as a “blocking effect”). […] For FIG. 11, linear AUC values from compound treated mice were reported as a percent of linear AUC values from vehicle-treated ovalbumin-sensitized/ovalbumin-challenged (asthmatic) mice.

[7] = target: T3, ERK2 (Homo sapiens, UniProt P28482); assay: Kinase panel screen (KinaseProfiler), ERK2; assay type: biochemical; conditions: 1 μM test compound, 10 μM ATP; read-out: Percent inhibition ERK2 at 1 μM
T3 construct: purchased Upstate, Millipore Bioscience Division (KinaseProfiler service)
T3 sequence (P28482 whole entry): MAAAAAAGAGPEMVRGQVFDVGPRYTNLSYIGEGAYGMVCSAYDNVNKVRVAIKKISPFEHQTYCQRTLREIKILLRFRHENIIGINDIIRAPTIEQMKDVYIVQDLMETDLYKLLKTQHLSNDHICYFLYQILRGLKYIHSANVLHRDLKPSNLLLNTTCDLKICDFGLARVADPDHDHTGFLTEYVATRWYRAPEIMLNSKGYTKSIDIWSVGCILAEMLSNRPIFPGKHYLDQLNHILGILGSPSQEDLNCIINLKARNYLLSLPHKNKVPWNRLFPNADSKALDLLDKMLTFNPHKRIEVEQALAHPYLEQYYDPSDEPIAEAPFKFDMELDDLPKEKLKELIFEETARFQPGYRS
Method: as §1

[8] = system: A-10 rat thoracic aorta cells; assay: PDGF-stimulated smooth muscle cell proliferation assay (BrdU incorporation); assay type: cell-based
Method: Effects on cell proliferation were measured using a bromodeoxyuridine (BrdU) incorporation assay. […] Serum free media containing 0.1% BSA was added to the cells. 24 hours later the media was removed and replaced with warmed serum free media. […] Proliferation was then monitored using the BrdU Cell Proiferation Assay, HTS (Calbiochem cat. # HTS01). BrdU was allowed to incorporate into cells for 24 hours prior to the addition of fixative/denaturing solution and the fluorometric detection of incorporated BrdU using a BrdU antibody as per manufacturer's directions. Data are reported as a percent of the PDGF-stimulated BrdU incorporation.

[9] = system: ova-sensitized, ova-challenged BALB/c mice; assay: In vivo anti-inflammatory activity, mouse ovalbumin sensitization model (BALF cells and cytokines); conditions: dosed orally to day 31, anti-inflammatory dosing paradigm
Method: Upon arrival, the animals were randomized into groups of five males per cage and assigned to a dosing group. Animals were quarantined for 7 days under test conditions. […] Animals were sensitized on day 0 and 14 of study by an intraperitoneal injection with 20 μg of ovalbumin (ova) and 2.0 mg aluminum hydroxide (alum) which initiates the development of a specific T-helper (Th) cells type 2 resulting in asthmatic animals (denoted as Ova in the fugures). One group of animals received an injection of saline to use as control animals (denoted as normal in the figures). […] Aerosol challenge consists of using an Aerogen Aeroneb nebulizer and controller with a particle size of 4-6 μm mass median aerodynamic diameter (MMAD) with a distribution of 400 μl per minute. This aerosol challenge is necessary to target the Th2-driven allergic inflammation in the lower airways.
The anti-inflammatory dosing paradigm (FIG. 5) was utilized to evaluate the anti-inflammatory effects of experimental compounds. […] On day 32 of the experiment, after measurement of airway hyperreactivity, BALF was collected and all animals were anesthetized, bled and euthanized.
Bronchoalveolar lavage fluid (BALF) was collected by infusing 3.0 ml of saline with 10% fetal calf serum into the lungs via the trachea and then withdrawing the fluid. The total amount of cells/ml of BALF fluid was determined via manual cell count on hemocytometer. The BALF was centrifuged, supernatant removed and analyzed for cytokine concentrations as described below, and cell pellet reconstituted in 500 μL of fluid. Cytospin slides were prepared from the cell pellet using 100 μL of fluid and spinning samples for 5 minutes at 5000 rpms in a cytospin centrifuge, Following Hema3 stain, relative percentages of individual leukocytes were determined on a 200 cell count for each sample. The final concentration of individual leukocyte cell types per ml of BALF was determined by multiplication of the relative percentage of individual leukocytes with the total amount of cells/ml of BALF fluid.
The concentrations of cytokines in the BALF samples were determined using commercially available Bio-plex kits (Bio-Rad) for the detection of mouse IL-5, IL-13, and Eotaxin. The analysis of cytokine levels was measured using the Bio-Plex 200 (Bio-Rad) system according to the manufacturer's instructions.

[10] = 10 μM of test compound, 1 ng/mL LPS, 4 hours, read-out: IL-1β % (Percent inhibition values for inhibition of cytokine secretion)
[11] = 10 μM of test compound, 1 ng/mL LPS, 4 hours, read-out: TNF-α % (Percent inhibition values for inhibition of cytokine secretion)
[12] = read-out: IL-6 % (Percent inhibition values for inhibition of cytokine secretion), 10 μM of test compound, 1 ng/mL LPS, 4 hours

Row | Compound | activity at 10 µM [1, 10] | activity at 10 µM [1, 11] | activity at 10 µM [1, 12] | also measured
1 | Cc1ccc(CN2CCC[C@H](Nc3ccc4[nH]ncc4c3)C2)cc1 [Compound 1.078, (S)-N-(1-(4-methylbenzyl)piperidin-3-yl)-1H-indazol-5-amine] | 60.4% | 88.1% | 111% | –
2 | NC(=O)Cn1ccc2cc(CN3CCC[C@@H](Nc4ccc5[nH]ncc5c4)C3)ccc21 [Compound 1.162, (R)-2-(5-((3-(1H-indazol-5-ylamino)piperidin-1-yl)methyl)-1H-indol-1-yl)acetamide] | – | – | – | Percent inhibition Mnk2 at 1 μM [2]: 111
3 | COc1ccc(CN2CCC[C@@H](Nc3ccc4[nH]ncc4c3)C2)cc1 [Compound 1.226, (R)-N-(1-(4-methoxybenzyl)piperidin-3-yl)-1H-indazol-5-amine] | 99.3% | 66.6% | – | –
4 | CCc1ccc(CN2CCC[C@@H](Nc3ccc4[nH]ncc4c3)C2)cc1 [Compound 1.136, (R)-N-(1-(4-ethylbenzyl)piperidin-3-yl)-1H-indazol-5-amine] | – | – | – | Cmax [3]: BLQ; Tmax [3]: BLQ; Vz_F [3]: BLQ; t½ [3]: BLQ; AUC (0-last) [3]: BLQ
5 | CSc1ccc(CN2CCC[C@@H](Nc3ccc4[nH]ncc4c3)C2)cc1 [Compound 1.074, (R)-N-(1-(4-(methylthio)benzyl)piperidin-3-yl)-1H-indazol-5-amine] | – | – | 96% | –
6 | OCCOc1cccc(CN2CCC[C@@H](Nc3ccc4[nH]ncc4c3)C2)c1 [Compound 1.092, (R)-2-(3-((3-(1H-indazol-5-ylamino)piperidin-1-yl)methyl)phenoxy)ethanol] | – | – | – | Vz_F [3]: 19.0 L/kg
7 | C[C@@H](N)[C@H]1CC[C@H](C(=O)Nc2ccncc2)CC1 [Compound Y-27632] | – | – | – | expression of IL-1β, TNFα, and various other cytokines [4]: suppress expression
8 | Clc1cccc(CN2CCC[C@H](Nc3ccc4[nH]ncc4c3)C2)c1 [Compound 1.170, (S)-N-(1-(3-chlorobenzyl)piperidin-3-yl)-1H-indazol-5-amine] | 80.6% | 67.8% | 72.7% | –
9 | c1ccc(CN2CCC[C@H](Nc3ccc4[nH]ncc4c3)C2)cc1 [Compound 1.227, (S)-N-(1-benzylpiperidin-3-yl)-1H-indazol-5-amine] | 69.4% | 79.3% | 66.7% | –
10 | Fc1ccc(CN2CCC[C@H](Nc3ccc4[nH]ncc4c3)C2)cc1F [Compound 1.072, (S)-N-(1-(3,4-difluorobenzyl)piperidin-3-yl)-1H-indazol-5-amine] | 98.2% | 83.8% | 96.1% | –
11 | C=Cc1ccc(CN2CCC[C@@H](Nc3ccc4[nH]ncc4c3)C2)cc1 [Compound 1.208, (R)-N-(1-(4-vinylbenzyl)piperidin-3-yl)-1H-indazol-5-amine] | 62% | 92% | 109% | –
12 | Brc1ccc(CN2CCC[C@H](Nc3ccc4[nH]ncc4c3)C2)cc1 [Compound 1.142, (S)-N-(1-(4-bromobenzyl)piperidin-3-yl)-1H-indazol-5-amine] | 82.8% | – | – | –
13 | OCCn1ccc2cc(CN3CC[C@@H](Nc4cccc5cnccc45)C3)ccc21 [Compound 2.066, (R)-2-(5-((3-(isoquinolin-5-ylamino)pyrrolidin-1-yl)methyl)-1H-indol-1-yl)ethanol] | – | – | – | Percent inhibition at 1 µM [5]: ~50%; airway hyperreactivity [6]: prevention of airway hyperreactivity; activity at 1 µM [7]: ~50%; Percent inhibition Mnk2 at 1 μM [2]: 99
14 | Oc1cccc(CN2CCC[C@@H](Nc3ccc4[nH]ncc4c3)C2)c1 [Compound 1.145, (R)-3-((3-(1H-indazol-5-ylamino)piperidin-1-yl)methyl)phenol] | 129% | – | – | –
15 | Cc1ccc(CN2CCC[C@H](Nc3ccc4[nH]ncc4c3)C2)cc1O [Compound 1.151, (S)-5-((3-(1H-indazol-5-ylamino)piperidin-1-yl)methyl)-2-methylphenol] | – | – | 114% | –
16 | c1ccc(CN2CCC[C@@H](Nc3ccc4[nH]ncc4c3)C2)cc1 [Compound 1.110, (R)-N-(1-benzylpiperidin-3-yl)-1H-indazol-5-amine] | 134% | 119% | 112% | –
17 | Cc1ccc(CN2CCC[C@@H](Nc3ccc4[nH]ncc4c3)C2)cc1OCCO [Compound 1.161, (R)-2-(5-((3-(1H-indazol-5-ylamino)piperidin-1-yl)methyl)-2-methylphenoxy)ethanol] | – | – | – | airway hyperreactivity [6]: prevention of airway hyperreactivity; Percent inhibition Mnk2 at 1 μM [2]: 108; Proliferation at 1 μM ([8]; average percent of PDGF stimulated proliferation at 1 μM test compound): 50.0%
18 | C=Cc1ccc(CN2CCC[C@H](Nc3ccc4[nH]ncc4c3)C2)cc1 [Compound 1.229, (S)-N-(1-(4-vinylbenzyl)piperidin-3-yl)-1H-indazol-5-amine] | 44.9% | 50.7% | 63.2% | –
19 | CSc1ccc(CN2CC[C@@H](Nc3cccc4cnccc34)C2)cc1 [Compound 2.026, (R)-N-(1-(4-(methylthio)benzyl)pyrrolidin-3-yl)isoquinolin-5-amine] | – | – | – | Cmax [3]: BLQ; Tmax [3]: BLQ; Vz_F [3]: BLQ; t½ [3]: BLQ; AUC (0-last) [3]: BLQ; Percent of PDGF Induced Proliferation at 10 μM Avg ([8]; 10 μM, 10 ng/mL PDGF): 52.0%; Proliferation at 10 μM ([8]; average percent of PDGF stimulated proliferation at 10 μM test compound): 52.0%
20 | NC(=O)Cn1ccc2ccc(CN3CC[C@@H](Nc4cccc5cnccc45)C3)cc21 [Compound 2.058, (R)-2-(6-((3-(isoquinolin-5-ylamino)pyrrolidin-1-yl)methyl)-1H-indol-1-yl)acetamide] | – | – | 1.3% | –
21 | c1cc2c(cc1CN1CCC[C@@H](Nc3ccc4[nH]ncc4c3)C1)CCO2 [Compound 1.246, (R)-N-(1-((2,3-dihydrobenzofuran-5-yl)methyl)piperidin-3-yl)-1H-indazol-5-amine] | 103% | 79% | 108% | –
22 | O=C(COc1cccc(CN2CCC[C@@H](Nc3ccc4[nH]ncc4c3)C2)c1)N1CCOCC1 [Compound 1.127, (R)-2-(3-((3-(1H-indazol-5-ylamino)piperidin-1-yl)methyl)phenoxy)-l-morpholinoethanone] | 198% | 97.3% | 67.3% | –
23 | c1cc2cc(CN3CCC[C@@H](Nc4ccc5[nH]ncc5c4)C3)ccc2[nH]1 [Compound 1.143, (R)-N-(1-((1H-indol-5-yl)methyl)piperidin-3-yl)-1H-indazol-5-amine] | 76.8% | – | – | –
24 | Fc1ccc(CN2CCC[C@@H](Nc3ccc4[nH]ncc4c3)C2)cc1 [Compound 1.146, (R)-N-(1-(4-fluorobenzyl)piperidin-3-yl)-1H-indazol-5-amine] | – | 97.7% | 128% | –
25 | c1cc2cc(CN3CCC[C@@H](Nc4ccc5[nH]ncc5c4)C3)ccc2o1 [Compound 1.131, (R)-N-(1-(benzofuran-5-ylmethyl)piperidin-3-yl)-1H-indazol-5-amine] | – | – | – | airway hyperreactivity to metacholine on Day 32 ([6]; oral 15 μMol/kg once a day): prevention of airway hyperreactivity; Vz_F [3]: 6.8 L/kg; airway eosinophil infiltration (eosinophils per ml of BALF) [9]: reduced
